Experimental data from patent US20150258059A1, “ANTIMICROBIAL AND RADIOPROTECTIVE COMPOUNDS” (BioDiem, Ltd, priority 2001, published 2015).
In brackets after ≈: the same amount, converted by molar mass. Where two headings read alike, the source gives them in different places.

Tests used:
Proteus vulgaris = test: microbe, parasite or virus in culture; assay type: cell-based; conditions: for MIC: Proteus vulgaris
Mycobact tub. H.37RV = test: Anti-TB effect, serial double dilution in liquid medium; assay type: cell-based, M tuberculosis; conditions: read-out: Minimal Inhibitory Concentration
E. coli = test: MIC by solvent of formulation; conditions: for MIC: Escherichia coli
[1] = system: C. guillermondii RMIT 176; test: M38-P microdilution MIC/MFC; assay type: cell-based; conditions: Table 16, 24 h, 35° C.
[2] = system: Streptococcus pneumonia ATCC49619; test: NCCLS broth microdilution MIC/MBC; assay type: cell-based; conditions: Table 9, 35° C., 24 hours
S. aureus = test: Antibacterial activity in the presence of blood, macrodilution; assay type: cell-based
Trichophyton rubrum = test: NCCLS broth macro-dilution MIC/MFC (RPMI); assay type: cell-based; conditions: Table 10, 7 day, 30° C.
Shigella sonnei B-720 = test: Sensitivity of strains: suppression of growth; assay type: cell-based; conditions: Compound (1) 1.0%; antibiotics disc method
Candida albicans B-45 = test: Sensitivity of pathogenic fungi; assay type: cell-based; conditions: Inoculation 5 × 10^4
[3] = system: Citrobacter diversus B-678; test: Sensitivity of strains: suppression of growth; assay type: cell-based; conditions: Compound (1) 1.0%; antibiotics disc method
C. hyointestinalis 54/4 = test: MIC/MMC against clinical strains of Campylobacter spp.; conditions: Table 18; clinical strain isolated from humans
Pseudoallescheria boydii = test: M38-P microdilution MIC/MFC; assay type: cell-based; conditions: Table 16, Dematiaceous fungi
[4] = system: Aspergillus fumigatus asexual exospores; test: Sporicidal activity; assay type: cell-based; conditions: 512 μg/mL in water+Tween-20; 24 hrs and 6 hrs
Protocol: Aspergillus fumigatus asexual exospores
Compound (1) in water+Tween-20® was tested for sporicidal activity up to 24 hrs.

Campylobacter spp. = test: NCCLS broth microdilution MIC/MBC; assay type: cell-based; conditions: Table 9, 48 h
Excerpt: (§1) NCCLS-USA Standard Method—Broth microdilution (or macrodilution) (Mueller-Hinton).
(§2) Inoculum 1-4×10^4 cfu (or −4×10^5 cfu). Ciprofloxacin test control. Chlorhexidine values added for disinfectant and antiseptic activity comparison.

[5] = system: Acinetobacter calcoaceticus RMIT; test: NCCLS broth microdilution MIC/MBC; assay type: cell-based; conditions: for MIC: Acinetobacter calcoaceticus
Excerpt: as §1, §2

Clostridium difficile = test: NCCLS broth microdilution MIC/MBC; assay type: cell-based; conditions: Clostridioides difficile; Table 9
Excerpt: as §1, §2

Klebsiella oxytoca = test: NCCLS broth microdilution MIC/MBC; assay type: cell-based; conditions: for MIC: Klebsiella oxytoca
Excerpt: as §1, §2

[6] = system: Conditional pathogenic enterobacteria gram-negative aerobic bacilli; assay type: cell-based; note: key: + sensitive strains; + moderately sensitive strains; − stable strains
Aspergillus fumigatus = test: microbe, parasite or virus in culture; assay type: cell-based; conditions: for MIC: Aspergillus fumigatus
Trichophyton = test: Sensitivity of pathogenic fungi; assay type: cell-based; conditions: Inoculation 10^2
C. jejuni 541-3 = test: MIC/MMC against clinical strains of Campylobacter spp.; conditions: Table 18; clinical strain isolated from humans
Candida albicans = test: Impregnated agar serial double dilutions; conditions: meat peptone agar
Enterococcus faecalis [7] = test: Agar plug diffusion, zone of retardation; conditions: plug impregnated at 0.5%
Salmonella typhimurium = test: NCCLS broth microdilution MIC/MBC; assay type: cell-based
[8] = system: Salmonella typhimurium M-727; test: Sensitivity of strains: suppression of growth; assay type: cell-based; conditions: Compound (1) 1.0%; antibiotics disc method
Haemophilus influenzae = test: NCCLS broth microdilution MIC/MBC; assay type: cell-based
Enterococcus faecalis [9] = test: Rate of kill, viable counts; conditions: 512 μg/mL; at 9 h
Pseudomonas = test: Agar plug diffusion, zone of retardation; assay type: cell-based, Pseudonomas aeruginosa; conditions: plug impregnated at 0.5%
Proteus vulgaris RMIT = test: NCCLS broth microdilution MIC/MBC; assay type: cell-based; conditions: for MIC: Proteus vulgaris
[10] = before exposure, MHB, read-out: Standard MIC Initial
[11] = Table 19, 24 H, 35° C., O2-MICRO METHOD

Structure (SMILES): C/C(=C\c1ccc2c(c1)OCO2)[N+](=O)[O-] [Compound (1)]
- MIC (Proteus vulgaris; after 12 weeks continuous exposure, read-out: Standard MIC Final): 128 µg/mL (≈ 618 µM)
- MIC (Proteus vulgaris; [10]): 128 µg/mL (≈ 618 µM)
- 7-Day MIC Range (Proteus vulgaris; Range to Week 12, No Rising Trend): 64 to 256 µg/mL
- MIC (Mycobact tub. H.37RV): 6.25 µg/mL (≈ 30.2 µM)
- times more active in ethanol than in DMSO (E. coli): at least 8 times
- MIC (E. coli; 2.5% DMSO): > 512 µg/mL
- MIC (E. coli; formulated in ethanol (0.06% ETON)): 128 µg/mL (≈ 618 µM)
- MMC [1]: 2 µg/mL
- MIC ([1]; read-out: MIC): 2 µg/mL (≈ 9.65 µM)
- MIC ([2]; Streptococcus pneumoniae, ATCC49619): 16 µg/mL (≈ 77.2 µM)
- MMC [2]: 32 µg/mL
- MIC (S. aureus; 5% blood): 16 µg/mL
- MMC (S. aureus; 5% blood): 256 µg/mL
- MIC (S. aureus; 10% plasma): 16 µg/mL
- MMC (S. aureus; 10% plasma): 256 µg/mL
- MIC (S. aureus; Staphylococcus aureus): 16 µg/mL
- MMC (Trichophyton rubrum): 256 µg/mL
- MIC (Trichophyton rubrum; Trichophyton rubrum, 168 h): 1 µg/mL (≈ 4.83 µM)
- Suppression of Growth (+/−) (Shigella sonnei B-720): +
- Number of microbes: Growth (Candida albicans B-45; 0.1%): 0
- Number of microbes: Retardation (Candida albicans B-45; 0.1%): 5 × 10^6
- Number of microbes: Growth (Candida albicans B-45; 0.5%): 0
- Number of microbes: Retardation (Candida albicans B-45; 0.5%): 5 × 10^6
- Number of microbes: Growth (Candida albicans B-45; 2.0%): 0
- Number of microbes: Retardation (Candida albicans B-45; 2.0%): 5 × 10^4
- Suppression of Growth (+/−) [3]: +
- MMC (C. hyointestinalis 54/4): 2
- MMC (Pseudoallescheria boydii): 4 µg/mL
- MIC (Pseudoallescheria boydii; read-out: MIC): 2 µg/mL (≈ 9.65 µM)
- sporicidal activity [4]: killed A. fumigatus exospores at 24 hrs but not 6 hrs
- MIC (Campylobacter spp.; Campylobacter): 128 µg/mL (≈ 618 µM)
- MMC (Campylobacter spp.): 128 µg/mL
- MIC ([5]; Table 9, 35° C., 24 hours): 128 µg/mL (≈ 618 µM)
- MIC ([5]; Table 17, 2 or 3 replicates): 128 µg/mL (≈ 618 µM)
- MMC ([5]; Table 9, 35° C., 24 hours): 256 µg/mL
- MMC ([5]; Table 17, 2 or 3 replicates): 256 µg/mL
- MIC (Clostridium difficile): 4 µg/mL (≈ 19.3 µM)
- MIC (Klebsiella oxytoca; Table 9, 35° C., 24 hours): 128 µg/mL (≈ 618 µM)
- MIC (Klebsiella oxytoca; Table 17, 2 or 3 replicates): 128 µg/mL (≈ 618 µM)
- MMC (Klebsiella oxytoca; Table 9, 35° C., 24 hours): 256 µg/mL
- MMC (Klebsiella oxytoca; Table 17, 2 or 3 replicates): 256 µg/mL
- Suppression of Growth (+/−) [6]: +
- MIC (Aspergillus fumigatus; Table 20, […], after 12 weeks continuous exposure, read-out: MIC Final): 8 µg/mL (≈ 38.6 µM)
- MIC (Aspergillus fumigatus; Table 20, […], parent strain, read-out: MIC Initial): 8 µg/mL (≈ 38.6 µM)
- MIC (Aspergillus fumigatus; [10]): 8 µg/mL (≈ 38.6 µM)
- 7-Day MIC Range (Aspergillus fumigatus; to Wk 5): 8-32 to Wk 5 μg/mL
- Number of microbes: Growth (Trichophyton; 0.1%): 0
- Number of microbes: Retardation (Trichophyton; 0.1%): 10^7
- Number of microbes: Growth (Trichophyton; 0.5%): 0
- Number of microbes: Retardation (Trichophyton; 0.5%): 10^7
- Number of microbes: Growth (Trichophyton; 2.0%): 0
- Number of microbes: Retardation (Trichophyton; 2.0%): 10^7
- MMC (C. jejuni 541-3): 2
- Minimal % Compound (1) giving complete inhibition of test culture (Candida albicans): 0.5%
- Size of zone of retardation of the growth (Enterococcus faecalis [7]): 6
- MIC (Salmonella typhimurium; Salmonella enterica, TYPHIMURIUM, 24 h): 256 µg/mL (≈ 1240 µM)
- MMC (Salmonella typhimurium; Table 9, 35° C., 24 hours): >512 µg/mL
- Suppression of Growth (+/−) [8]: +
- MIC (Haemophilus influenzae; Haemophilus influenzae, Table 9, 35° C., 24 hours, read-out: MIC): 0.125 µg/mL (≈ 0.603 µM)
- MIC (Haemophilus influenzae; Haemophilus influenzae, Table 17, 2 or 3 replicates, read-out: MIC): 0.125 µg/mL (≈ 0.603 µM)
- MMC (Haemophilus influenzae; Table 9, 35° C., 24 hours): 0.125 µg/mL
- MMC (Haemophilus influenzae; Table 17, 2 or 3 replicates): 0.125 µg/mL
- MIC (Haemophilus influenzae; [11]): 0.125 µg/mL (≈ 0.603 µM)
- MMC (Haemophilus influenzae; [11]): 0.125 µg/mL
- Log reduction in viable count (Enterococcus faecalis [9]): 0.6 at 9 h
- Size of zone of retardation of the growth (Pseudomonas): 0
- MIC (Proteus vulgaris RMIT): 128 µg/mL (≈ 618 µM)
- MIC (Proteus vulgaris RMIT; 24 h): 128 µg/mL (≈ 618 µM)
- MMC (Proteus vulgaris RMIT; Table 9, 35° C., 24 hours): 256 µg/mL
- MMC (Proteus vulgaris RMIT; Table 17, 2 or 3 replicates): 128 µg/mL
